Values joined by “and” are separate entries in the source; they are usually repeats but may differ in a detail not shown here. Equal values may be shown once.
Tests used:
human plasma proteins = assay: Binding to human plasma proteins; assay type: in vitro ADME; details: for Protein binding (%): human plasma, 37 °C, n = 2; for Binding rate to human plasma proteins: overall statement, incubation up to 120 min
Experimental: Binding to human plasma proteins was determined following this procedure: 10 µL of the ⁶⁸Ga-P15 with radioactivity of 45 kBq/100 µL was mixed with 190 µL of human plasma. The sample was then incubated at 37 °C. After 0, 30, 60 and 120 min 25 µL of the sample was collected, applied to the appropriate column and centrifuged at 2000 g for 2 minutes. The radioactivity of the samples was then measured using a gamma counter 2480 Wizard^2 (PerkinElmer, Waltham, MA, USA), and then the binding to plasma proteins was calculated using the following formula % plasma protein binding = (Aelution/Atotal)×100. The same procedure was applied when determining binding to plasma proteins of ⁶⁸Ga-P16, ⁶⁸Ga-P19, and ⁶⁸Ga-PSMA-617.

[1] = Stability in human plasma/serum (radiochemical purity by HPLC); assay type: in vitro ADME; details: 37 °C, incubation time 0 min, n = 1
PSMA (LNCaP cells) = target: T1, PSMA (LNCaP cells) (Homo sapiens, UniProt Q04609); assay: Competition assay on LNCaP cells against [68Ga]Ga-PSMA-617; assay type: binding; details: for IC50: competition with 5 nM [68Ga]Ga-PSMA-617, 60 min, 37 °C
T1 construct: host or cells: LNCaP
Experimental: The competition assay, LNCaP cells were seeded into poly-L-lysine coated 24-well plates in amount of 0.5 × 10^6 cells/well 24 h prior to the competition assay. The tested ligands (^68Ga-P15, ^68Ga-P16 and ^68Ga-P19) were added to the wells in concentrations 0, 1, 5, 10, 25, 50, 100, 500, 1000 and 5000 nM in triplicates. Afterwards, ^68Ga-labelled PSMA-617 was added to each well so its final concentration was 5 nM. All the ligands in this assay were dissolved in the buffer containing 25 mM Tris-HCl, 5.4 mM KCl, 1.8 mM CaCl2, 0.8 mM MgSO4, 5 mM glucose, and 140 mM NaCl in H2O (pH adjusted to 7.4). ^68Ga-PSMA-617 was incubated on cells for 60 min at 37 °C followed by its removal and washing the cells with PBS. Finally, the cells were disintegrated using 0.1 M NaOH and transferred into the scintillation vials for the gamma counting. The IC50 values were calculated by fitting the data using a nonlinear regression algorithm (GraphPad PRISM 7.0) and the data were assessed by t-test.

T1 sequence (Q04609 whole entry): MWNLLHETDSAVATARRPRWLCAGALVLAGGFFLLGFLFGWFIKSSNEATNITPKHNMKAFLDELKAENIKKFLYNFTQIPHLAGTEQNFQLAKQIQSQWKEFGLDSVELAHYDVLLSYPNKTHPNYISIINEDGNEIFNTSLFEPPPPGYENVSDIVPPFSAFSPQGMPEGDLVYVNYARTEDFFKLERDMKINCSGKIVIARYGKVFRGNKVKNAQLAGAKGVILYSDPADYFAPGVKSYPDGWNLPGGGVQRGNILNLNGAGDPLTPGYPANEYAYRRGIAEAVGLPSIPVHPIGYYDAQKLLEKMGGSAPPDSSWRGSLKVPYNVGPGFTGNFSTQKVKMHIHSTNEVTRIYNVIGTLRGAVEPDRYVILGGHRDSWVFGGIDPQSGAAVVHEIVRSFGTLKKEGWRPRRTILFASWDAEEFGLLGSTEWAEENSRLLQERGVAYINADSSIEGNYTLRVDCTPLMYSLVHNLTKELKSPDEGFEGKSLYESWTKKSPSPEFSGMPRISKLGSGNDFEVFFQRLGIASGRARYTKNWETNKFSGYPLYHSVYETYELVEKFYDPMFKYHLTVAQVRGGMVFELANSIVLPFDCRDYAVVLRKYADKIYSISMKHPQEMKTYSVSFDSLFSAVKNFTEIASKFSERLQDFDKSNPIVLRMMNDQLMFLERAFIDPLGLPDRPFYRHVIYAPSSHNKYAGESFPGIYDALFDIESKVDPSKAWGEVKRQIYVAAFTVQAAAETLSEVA

SMILES | Protein binding (%) (human plasma proteins; incubation time 0 min) | Protein binding (%) (human plasma proteins; incubation time 30 min) | Protein binding (%) (human plasma proteins; incubation time 60 min) | Protein binding (%) (human plasma proteins; incubation time 120 min) | Stability in human serum (%) [1] | IC50 (PSMA (LNCaP cells)) | Binding rate to human plasma proteins (human plasma proteins) | IC50 fold higher than that of [68Ga]Ga-P16 (PSMA (LNCaP cells); competition assay)
O=C([O-])CN1CCN(CC(=O)[O-])CCN(CC(=O)NCc2ccc(C(=O)N[C@H](C(=O)NCCCC[C@H](NC(=O)N[C@@H](CCC(=O)O)C(=O)O)C(=O)O)C(c3ccccc3)c3ccccc3)cc2)CCN(CC(=O)[O-])CC1.[68Ga+3] [[^68Ga]Ga-P19] | 56.6% | 59% and 58.8% | 58% and 57.7% | 58% and 58.2% | 99.0% | 95.6 nM |  | 
O=C([O-])CN1CCN(CC(=O)[O-])CCN(CC(=O)N[C@H]2CC[C@H](NC(=O)[C@@H](Cc3ccc4ccccc4c3)NC(=O)CC[C@H](NC(=O)N[C@@H](CCC(=O)O)C(=O)O)C(=O)O)CC2)CCN(CC(=O)[O-])CC1.[68Ga+3] [[^68Ga]Ga-P15] | 26.7% | 27.0% | 29% and 29.4% | 40% and 39.9% | 99.0% | 97.3 nM | ≤ 40% | ~25 fold
O=C([O-])CN1CCN(CC(=O)[O-])CCN(CC(=O)N[C@H]2CC[C@H](NC(=O)[C@H](Cc3ccc4ccccc4c3)NC(=O)CC[C@H](NC(=O)N[C@@H](CCC(=O)O)C(=O)O)C(=O)O)CC2)CCN(CC(=O)[O-])CC1.[68Ga+3] [[^68Ga]Ga-P16] | 10% and 10.2% | 10.9% | 10.8% | 13% and 13.4% | 99.0% | 4 nM | ≤ 40% | 
